Assay results reported in patent publication US8885174B2, “Monitoring energy and matter fluxes by use of electromagnetic radiations” (priority 2009, dated 2014).
“Also recorded” adds a separate entry of the source. Read-outs that look alike come from different tables or passages of the source.

Experiments:
[1] = molecular target: T1, rat GABAA α1β2γ2s receptor expressed in HEK 293 cells (HEKGABA) (Rattus norvegicus, UniProt P18508+P62813+P63138); assay type: cell-based; conditions: −100 mV, picrotoxin 30 μM; for effect on phase signal in HEKGABA (in words): GABA 3 μM, muscimol 1 μM, 30 s
T1 sequence (P63138 25-474): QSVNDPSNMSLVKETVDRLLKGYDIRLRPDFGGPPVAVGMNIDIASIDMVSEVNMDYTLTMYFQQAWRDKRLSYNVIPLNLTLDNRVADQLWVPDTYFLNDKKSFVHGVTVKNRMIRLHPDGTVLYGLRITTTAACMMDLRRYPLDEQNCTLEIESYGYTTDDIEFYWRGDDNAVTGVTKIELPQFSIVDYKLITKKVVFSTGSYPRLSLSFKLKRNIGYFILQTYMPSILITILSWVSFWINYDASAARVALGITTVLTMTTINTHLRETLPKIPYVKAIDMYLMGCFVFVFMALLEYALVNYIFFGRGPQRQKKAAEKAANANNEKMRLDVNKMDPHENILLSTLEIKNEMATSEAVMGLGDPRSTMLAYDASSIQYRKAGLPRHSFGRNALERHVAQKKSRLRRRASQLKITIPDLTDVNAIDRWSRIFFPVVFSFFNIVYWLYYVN
T1 sequence (P18508 39-466): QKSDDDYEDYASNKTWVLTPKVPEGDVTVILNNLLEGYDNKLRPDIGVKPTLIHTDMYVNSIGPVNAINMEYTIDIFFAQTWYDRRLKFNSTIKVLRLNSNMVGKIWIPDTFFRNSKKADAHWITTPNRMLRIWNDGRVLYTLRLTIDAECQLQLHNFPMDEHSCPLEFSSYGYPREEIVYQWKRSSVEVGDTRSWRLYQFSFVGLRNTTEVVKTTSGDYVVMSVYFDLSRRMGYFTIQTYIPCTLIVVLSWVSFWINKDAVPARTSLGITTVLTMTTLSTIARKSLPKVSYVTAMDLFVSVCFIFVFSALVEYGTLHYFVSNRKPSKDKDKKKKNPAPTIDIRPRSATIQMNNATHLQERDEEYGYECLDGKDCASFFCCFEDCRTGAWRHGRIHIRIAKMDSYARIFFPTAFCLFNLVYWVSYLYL
T1 sequence (P62813 28-455): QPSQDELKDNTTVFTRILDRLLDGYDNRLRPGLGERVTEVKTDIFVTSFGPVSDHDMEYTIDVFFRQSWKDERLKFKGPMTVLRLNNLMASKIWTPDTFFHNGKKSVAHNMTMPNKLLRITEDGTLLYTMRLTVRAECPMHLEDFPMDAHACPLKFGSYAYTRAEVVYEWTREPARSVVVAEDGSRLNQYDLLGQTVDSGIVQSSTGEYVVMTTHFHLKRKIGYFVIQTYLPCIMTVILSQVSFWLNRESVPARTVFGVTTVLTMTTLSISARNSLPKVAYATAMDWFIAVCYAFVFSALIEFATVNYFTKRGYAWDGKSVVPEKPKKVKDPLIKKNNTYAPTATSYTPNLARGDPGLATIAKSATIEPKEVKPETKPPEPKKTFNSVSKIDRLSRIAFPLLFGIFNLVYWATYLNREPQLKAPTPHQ
Text: HEKGABA cells: HEK 293 cells stably expressing configurations of rat GABAA receptors (HEKGABA) were generously given by Hoffmann-LaRoche (Basel, Switzerland). Briefly, cDNAs encoding rat GABAA α1, β2 and γ2s subunits were subcloned into the expression vectors pIRESpuro2, pIRESneo2 and pIREShygro2 vectors (Clontech, Mountain View, Calif.), respectively. The pIRES/GABAA α1, β2, γ2s, constructs were sequenced to confirm their nucleotide sequence and then cotransfected into HEK 293 cells at a ratio of 1:1:2 (plasmid mass ratio) using the lipofectamine 2000 kit according to the manufacturer's instructions (Invitrogen, Carlsbad, Calif., USA). Transfected cells were grown in minimal essential medium (Invitrogen) supplemented with 10% fetal calf serum (Invitrogen), 20 mM HEPES (Invitrogen) and 100 U/ml penicillin/100 μg/ml streptomycin (Invitrogen) for 48 hours and then, the cells were transferred to the selection medium containing 0.3 μg/ml puromycin (Clontech, Mountain View, Calif., USA), 300 μg/ml hygromycin B (Roche Diagnostics, Mannheim, Germany) and 200 μg/ml G418 (Invitrogen) for the generation of stable cell lines. Cell colonies were isolated and expression of the GABAA α1β2γ2s receptor was determined by [^3H] flumazenil binding.
(§1) Electrophysiology recording: All cultures were perfused in an artificial cerebrospinal fluid (ACSF) containing (in mM): […] (pH 7.4; Room temperature). For some experiments performed on HEK cells, picrotoxin (30 μM, Tocris) was added to the ACSF. […] Whole-cell recordings were made, and signals were amplified by using Multiclamp 700B amplifiers (Axon Instruments, Union City, Calif.) and digitized by means of an ITC-1600 interface (Instrutech, Great Neck, N.Y.) to a PC computer running Igor Pro (Wavemetrics, Portland, Oreg.). All currents (sampling interval, 5 kHz) were low-pass filtered (2 kHz). They were recorded with pipettes containing 95 mM potassium-gluconate, 40 mM KCl, 10 mM Hepes, 2 mM MgCl2 (pH 7.3). For some experiments, 95 mM potassium-gluconate was substituted with 95 mM KCl to reach a final concentration of [Cl^−]intrapip, to 139 mM. The pipettes were pulled with a DMZ universal puller.
Imaging: Holograms are acquired with a DHMT 1000 (Lyncée Tech SA, PSE-EPFL). A laser diode produces the coherent light (λ=683 nm) which is divided by a beam splitter into a reference wave and an object wave. The object wave diffracted by the specimen is collected by a microscope objective and interferes with a reference beam to produce the hologram recorded by the CCD camera. Frequency of hologram acquisition is 0.2 Hz. Reconstruction of the original image from the hologram is numerically achieved by a computer. The reconstruction algorithm provides simultaneous amplitude and quantitative phase images of the cells (Koala software).
Offline analysis: The electrophysiological and optical recordings were analysed by using MATLAB 7.6 (Mathworks Software, Natick, Mass.) and all curves have been fitted by using ORIGIN 7.5 (Microcal Software, Northampton, Mass.). […] All data are presented as means±SEM. Student's t-test (paired or unpaired) to determine statistical significance (p<0.05).

[2] = molecular target: T1, rat GABAA α1β2γ2s receptor expressed in HEK 293 cells (HEKGABA); assay: Whole-cell electrophysiology recording of GABAA current (IGABA, I/V curve) on HEKGABA cells; assay type: cell-based; conditions: GABA 3 μM or muscimol 1 μM, 30 s
Text: HEKGABA cells: HEK 293 cells stably expressing configurations of rat GABAA receptors (HEKGABA) were generously given by Hoffmann-LaRoche (Basel, Switzerland). Briefly, cDNAs encoding rat GABAA α1, β2 and γ2s subunits were subcloned into the expression vectors pIRESpuro2, pIRESneo2 and pIREShygro2 vectors (Clontech, Mountain View, Calif.), respectively. The pIRES/GABAA α1, β2, γ2s, constructs were sequenced to confirm their nucleotide sequence and then cotransfected into HEK 293 cells at a ratio of 1:1:2 (plasmid mass ratio) using the lipofectamine 2000 kit according to the manufacturer's instructions (Invitrogen, Carlsbad, Calif., USA). […] Cell colonies were isolated and expression of the GABAA α1β2γ2s receptor was determined by [^3H] flumazenil binding.
Electrophysiology recording: All cultures were perfused in an artificial cerebrospinal fluid (ACSF) containing (in mM): NaCl 150, KCl 3, D-glucose, 10 HEPES 10, CaCl2 3, and mM MgCl2. […] They were recorded with pipettes containing 95 mM potassium-gluconate, 40 mM KCl, 10 mM Hepes, 2 mM MgCl2 (pH 7.3). […]
Offline analysis: The electrophysiological and optical recordings were analysed by using MATLAB 7.6 (Mathworks Software, Natick, Mass.) and all curves have been fitted by using ORIGIN 7.5 (Microcal Software, Northampton, Mass.). […]

[3] = tested on: HEKnorm; assay: DHM phase signal recording on non-transfected HEK cells (HEKnorm); assay type: cell-based; conditions: −100 mV, GABA 3 μM, 30 s
Protocol: as §1
Imaging: Holograms are acquired with a DHMT 1000 (Lyncée Tech SA, PSE-EPFL). […] The object wave diffracted by the specimen is collected by a microscope objective and interferes with a reference beam to produce the hologram recorded by the CCD camera. […] The reconstruction algorithm provides simultaneous amplitude and quantitative phase images of the cells (Koala software).

[4] = tested on: cortical neurons in primary culture; assay: DHM multisite phase recording on unpatched cortical neurons in primary culture; assay type: cell-based, mice; conditions: GABA 100 μM, 30 s
Protocol: Neuronal cell cultures: Primary cultures of cortical neurons were prepared from E17 OF1 mice embryos. Briefly, embryos were decapitated and brains removed and placed in PBS-glucose. Cortex was removed under a dissecting microscope and collected in a small Petri dish in PBS-glucose. Cell dissociation was obtained by gentle trituration with a fire-polished Pasteur pipette in Neurobasal medium supplemented with B27 and GlutaMAX (Invitrogen). Cells were plated at an average density of 15000 cells/cm^2 in supplemented Neurobasal medium on poly-ornithine coated glass coverslips (20 mm Ø). After 3-4 h, coverslips were transferred to dishes containing glial cell monolayers in supplemented Neurobasal medium. Neurons were maintained at 37° C. in a humidified atmosphere of 95% air/5% CO2 and were used after 21-35 days in vitro (DIV).
Imaging: Holograms are acquired with a DHMT 1000 (Lyncée Tech SA, PSE-EPFL). A laser diode produces the coherent light (λ=683 nm) which is divided by a beam splitter into a reference wave and an object wave. The object wave diffracted by the specimen is collected by a microscope objective and interferes with a reference beam to produce the hologram recorded by the CCD camera. Frequency of hologram acquisition is 0.2 Hz. Reconstruction of the original image from the hologram is numerically achieved by a computer. The reconstruction algorithm provides simultaneous amplitude and quantitative phase images of the cells (Koala software). It is important to note that an extensive quality control of the DHM technique has been published by Rappaz et al “Comparative study of human erythrocytes by digital holographic microscopy, confocal microscopy, and impedance volume analyzer” Cytom Part A 73A, 895-903 (2008).
Neurons also presented heterogeneous phase responses.

Compound | effect on phase signal in HEKGABA (in words) [1] | effect on phase signal in HEKGABA (in words) ([1]; listed as Muscimol) | reversal potential for Cl− (ECl) from I/V curve ([2]; [Cl−]intrapip 40 mM (44 mM elsewhere in the source)) | reversal potential for Cl− (ECl) from I/V curve ([2]; [Cl−]intrapip 139 mM) | change of phase response evoked by GABA in presence of antagonist ([1]; GABA 3 μM 30 s) | effect on phase signal in HEKGABA (in words) ([1]; listed as Picrotoxin) | effect on phase signal in HEKnorm (in words) [3] | Δφ phase signal in HEKnorm [3] | phase response, neurons with increase of phase signal ([4]; 3 of 46 cells) | phase response, neurons with decrease of phase signal ([4]; 13 of 46 cells) | phase response, neurons with modest or no detectable signal ([4]; 30 of 46 cells)
NCc1cc(=O)[nH]o1 [muscimol, Muscimol] | mimicked the effect of GABA | mimicked | −27 mV | −4 mV |  |  |  |  |  |  | 
picrotoxin | reduces the phase shift |  |  |  | −82±17% | blocked |  |  |  |  | 
NCCCC(=O)O [GABA] |  |  |  |  |  |  | no effect; also recorded: ineffective | 0.33±0.55 ° | 1.16+/−0.47 ° | −2.55+/−0.29 ° | −0.16+/−0.2 °
